Assay results published in patent EP0894089B9, “NOVEL HETEROCYCLIC COMPOUNDS HAVING ANTIDIABETIC, HYPOLIPIDAEMIC, ANTIHYPERTENSIVE PROPERTIES, PROCESS FOR THEIR PREPARATION AND PHARMACEUTICAL COMPOSITIONS CONTAINING THEM” (Dr. Reddy's Laboratories Ltd., priority 1997, dated 1997).
Structures can show the parent of a compound that is named as a salt.

System: C57BL/KsJ-db/db mice
Test: blood sugar and triglycerides lowering activity in db/db mice (in vivo)
Details: male C57BL/KsJ-db/db mice; for Triglyceride Lowering (%) / Reduction in Blood Glucose Level (%): 30 mg / kg oral gavage daily for 6 days, one hour after administration; for Triglyceride Lowering (%): plasma triglyceride on 6th day; for Reduction in Blood Glucose Level (%): random plasma glucose on 6th day
Excerpt: Mutation in colonies of laboratory animals and different sensitivities to dietary regimens have made the development of animal models with non-insulin dependent diabetes associated with obesity and insulin resistance possible. Genetic models such as db/db and ob/ob (See Diabetes, (1982) 31(1) : 1- 6) in mice and fa/fa and zucker rats have been developed by the various laboratories for understanding the pathophysiology of disease and testing the efficacy of new antidiabetic compounds (Diabetes, (1983) 32: 830-838; Annu. Rep. Sankyo Res. Lab. (1994). 46 : 1-57). The homozygous animals, C57 BL/KsJ-db/db mice developed by Jackson Laboratory, US, are obese, hyperglycemic, hyperinsulinemic and insulin resistant (J. Clin. Invest., (1990) 85 : 962-967), whereas heterozygous are lean and normoglycemic. In db/db model, a mouse progressively develops insulinopenia with age, a feature commonly observed in late stages of human type II diabetes when blood sugar levels are insufficiently controlled. The state of pancreas and its course vary according to the models. Since this model resembles that of type II diabetes mellitus, the compounds of the present invention were tested for blood sugar and triglycerides lowering activities.
Male C57BL/KsJ-db/db mice of 8 to 14 weeks age, having body weight range of 35 to 60 grams, procured from the Jackson Laboraotory, USA, were used in the experiment. The mice were provided with standard feed (National Institute of Nutrition, Hyderabad, India) and acidified water, ad libitum. The animals having more than 300 mg / dl blood sugar were used for testing. The number of animals in each group was 4.
The random blood sugar and triglyceride levels were measured by collecting blood (100 µl) through orbital sinus, using heparinised capillary in tubes containing EDTA which was centrifuged to obtain plasma. The plasma glucose and triglyceride levels were measured spectrometrically, by glucose oxidase and glycerol-3-PO4 oxidase/peroxidase enzyme (Dr. Reddy's Lab. Diagnostic Division Kits, Hyderabad, India) methods respectively. On 6th day the blood samples were collected one hour after administration of test compounds / vehicle for assessing the biological activity.
Test compounds were suspended on 0.25 % carboxymethyl cellulose and administered to test group at a dose of 30 mg / kg through oral gavage daily for 6 days. The control group received vehicle (dose 10 ml / kg).
The blood sugar and triglycerides lowering activities of the test compound was calculated according to the formula: Blood sugar / triglycerides lowering activity (%) = 1 -(DT/DC)/(TC/ZC)X 100 [formula] • ZC = Zero day control group value • DC = Zero day treated group value • TC = Control group value on test day • DT = Treated group value on the test day

SMILES	Triglyceride Lowering (%)	Reduction in Blood Glucose Level (%)	reduction in random blood sugar level (100 mg / kg, daily dose, on 6th day)
Cc1c(C)c2c(c(C)c1OCc1ccccc1)C(CN1CCC[C@H]1COc1ccc(C=C3SC(=O)NC3=O)cc1)C(C)(C)O2 (stereo partly drawn) [Example 13, 5-[4-[N-[3(RS)-5-Benzyloxy-2,3-dihydro-2,2,4,6,7-pentamethylbenzofuran-3-ylmethyl]-(2S)-pyrrolidine-2-methoxy]phenylmethylene]thiazolidine-2,4-dione maleate]	42%	45%	–
Cc1c(C)c2c(c(C)c1O)CCC(C)(COc1ccc(CC3SC(=O)NC3=O)cc1)O2 (stereo not shown) [Troglitazone, reference compound]	–	–	28%
Cc1oc2c(C)c(C)c(OCc3ccccc3)c(C)c2c1CN1CCC[C@H]1COc1ccc(C=C2SC(=O)NC2=O)cc1 [Example 20, 5-[4-[N-(5-Benzyloxy-2,4,6,7-tetramethylbenzofuran-3-ylmethyl)-(2S)-pyrrolidine-2-methoxy]phenylmethylene]thiazolidine-2,4-dione]	43%	16%	–
Cc1c(C)c2c(c(C)c1OCc1ccccc1)CCC(C)(CN1CCC[C@H]1COc1ccc(CC3SC(=O)NC3=O)cc1)O2 (stereo partly drawn) [Example 7, 5-[4-[N-(2RS)-6-Benzyloxy-2,5,7,8,-tetramethylchroman-2-ylmethyl]-(2S)-pyrrolidine-2-methoxy]phenyl methyl]thiazolidine-2,4-dione, sodium salt]	70%	36%	–
